Source: patent US8815923B2, “Therapeutic compounds” (Allergan, Inc., priority 2007, dated 2014)

How the values were obtained:
Type in all cases: cell-based
alpha2A receptor = biological target: T1, alpha2A receptor (Homo sapiens, UniProt P08913); experiment: RSAT assay, Alpha 2A; conditions: for Emax: read-out: Alpha 2A IA (intrinsic activity), in parentheses
T1 construct: expressed in transfected cells; host or cells: NIH-3T3
T1 sequence (P08913 1-465): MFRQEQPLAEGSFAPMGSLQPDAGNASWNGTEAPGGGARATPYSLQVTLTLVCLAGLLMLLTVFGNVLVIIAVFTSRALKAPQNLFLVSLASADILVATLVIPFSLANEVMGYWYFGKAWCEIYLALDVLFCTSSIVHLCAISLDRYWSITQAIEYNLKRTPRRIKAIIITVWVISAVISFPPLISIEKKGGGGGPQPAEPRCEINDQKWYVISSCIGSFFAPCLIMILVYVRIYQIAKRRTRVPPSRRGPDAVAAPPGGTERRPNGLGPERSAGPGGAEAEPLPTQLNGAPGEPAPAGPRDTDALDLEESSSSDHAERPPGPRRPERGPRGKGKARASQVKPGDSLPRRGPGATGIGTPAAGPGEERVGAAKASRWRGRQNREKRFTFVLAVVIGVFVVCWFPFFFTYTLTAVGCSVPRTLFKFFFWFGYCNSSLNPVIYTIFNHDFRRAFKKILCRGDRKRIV
Protocol: (§1) Receptor Selection and Amplification Technology (RSAT) Assay
(§2) The RSAT assay measures a receptor-mediated loss of contact inhibition that results in selective proliferation of receptor-containing cells in a mixed population of confluent cells. The increase in cell number is assessed with an appropriate transfected marker gene such as β-galactosidase, the activity of which can be easily measured in a 96-well format. Receptors that activate the G protein, Gq, elicit this response. Alpha2 receptors, which normally couple to Gi, activate the RSAT response when coexpressed with a hybrid Gq protein that has a Gi receptor recognition domain, called Gq/i5.
(§3) NIH-3T3 cells are plated at a density of 2×10^6 cells in 15 cm dishes and maintained in Dulbecco's modified Eagle's medium supplemented with 10% calf serum. One day later, cells are cotransfected by calcium phosphate precipitation with mammalian expression plasmids encoding p-SV-β-galactosidase (5-10 μg), receptor (1-2 μg) and G protein (1-2 μg). 40 μg salmon sperm DNA may also be included in the transfection mixture. Fresh media is added on the following day and 1-2 days later, cells are harvested and frozen in 50 assay aliquots. Cells are thawed and 100 μl added to 100 μl aliquots of various concentrations of drugs in triplicate in 96-well dishes. Incubations continue 72-96 hr at 37° C. After washing with phosphate-buffered saline, β-galactosidase enzyme activity is determined by adding 200 μl of the chromogenic substrate (consisting of 3.5 mM o-nitrophenyl-β-D-galactopyranoside and 0.5% nonidet P-40 in phosphate buffered saline), incubating overnight at 30° C. and measuring optical density at 420 nm. The absorbance is a measure of enzyme activity, which depends on cell number and reflects a receptor-mediated cell proliferation. The efficacy or intrinsic activity is calculated as a ratio of the maximal effect of the drug to the maximal effect of a standard full agonist for each receptor subtype. Brimonidine, also called UK14304, the chemical structure of which is shown below, is used as the standard agonist for the alpha2A, alpha2B and alpha2C receptors. The EC50 is the concentration at which the drug effect is half of its maximal effect.
(§4) EC50 values are nanomolar. ND stands for “not determinable” at concentrations less than 10 micromolar. IA stands for “intrinsic activity.”

alpha2B receptor = biological target: T2, alpha2B receptor (Homo sapiens, UniProt P18089); experiment: RSAT assay, Alpha 2B; conditions: for EC50: RSAT, transfected NIH-3T3 cells with Gq/i5, nd = not determinable at concentrations less than 10 micromolar; for Emax: read-out: Alpha 2B IA (intrinsic activity), in parentheses
T2 construct: expressed in transfected cells; host or cells: NIH-3T3
T2 sequence (P18089 1-450): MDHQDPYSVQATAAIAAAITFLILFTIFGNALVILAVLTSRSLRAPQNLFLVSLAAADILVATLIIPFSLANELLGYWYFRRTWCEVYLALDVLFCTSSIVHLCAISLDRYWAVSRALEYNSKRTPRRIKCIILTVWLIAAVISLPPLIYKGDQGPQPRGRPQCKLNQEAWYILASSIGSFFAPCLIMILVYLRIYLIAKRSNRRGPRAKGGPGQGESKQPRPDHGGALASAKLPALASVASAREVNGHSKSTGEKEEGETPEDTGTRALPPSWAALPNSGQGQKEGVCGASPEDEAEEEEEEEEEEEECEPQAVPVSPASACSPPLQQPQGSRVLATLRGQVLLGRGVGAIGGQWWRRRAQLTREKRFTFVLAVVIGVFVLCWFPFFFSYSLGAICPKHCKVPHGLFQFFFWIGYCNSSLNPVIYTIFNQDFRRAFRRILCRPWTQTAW
Protocol: as §1, §2, §3, §4

alpha2C receptor = biological target: T3, alpha2C receptor (Homo sapiens, UniProt P18825); experiment: RSAT assay, Alpha 2C; conditions: for EC50: RSAT, transfected NIH-3T3 cells with Gq/i5, nd = not determinable at concentrations less than 10 micromolar; for Emax: read-out: Alpha 2C IA (intrinsic activity), in parentheses
T3 construct: expressed in transfected cells; host or cells: NIH-3T3
T3 sequence (P18825 1-462): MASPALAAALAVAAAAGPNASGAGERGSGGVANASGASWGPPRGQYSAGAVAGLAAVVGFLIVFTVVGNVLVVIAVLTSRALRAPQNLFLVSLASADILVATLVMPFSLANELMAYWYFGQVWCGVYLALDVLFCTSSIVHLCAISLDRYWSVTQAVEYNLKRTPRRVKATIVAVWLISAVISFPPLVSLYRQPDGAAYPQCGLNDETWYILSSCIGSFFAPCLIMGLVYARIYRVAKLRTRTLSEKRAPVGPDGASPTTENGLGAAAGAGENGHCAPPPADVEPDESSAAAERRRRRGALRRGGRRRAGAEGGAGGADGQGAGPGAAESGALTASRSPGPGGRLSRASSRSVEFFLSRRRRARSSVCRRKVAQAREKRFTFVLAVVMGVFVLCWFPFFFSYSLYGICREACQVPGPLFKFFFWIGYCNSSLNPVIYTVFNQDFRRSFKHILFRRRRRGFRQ
Protocol: as §1, §2, §3, §4

SMILES	Emax (alpha2A receptor)	EC50 (alpha2B receptor)	Emax (alpha2B receptor)	EC50 (alpha2C receptor)	Emax (alpha2C receptor)	EC50 (alpha2A receptor; RSAT, transfected NIH-3T3 cells with Gq/i5, nd = not determinable at concentrations less than 10 micromolar)
c1ccc2c(c1)CCC[C@@H]2NC1=NCCN1 [compound 323]	12%	49 nM	102%	308 nM	42%	–
Cc1cc(C)c2c(c1)C(NC1=NCCN1)CCC2 (stereo not drawn) [compound 904, (4,5-Dihydro-1H-imidazol-2-yl)-(5,7-dimethyl-1,2,3,4-tetrahydro-naphthalen-1-yl)-amine]	35%	68 nM	80%	–	4%	1620 nM
c1ccc2c(c1)CCCC2NC1=NCCN1 (stereo not drawn) [compound 639, (4,5-Dihydro-1H-imidazol-2-yl)-(1,2,3,4-tetrahydro-naphthalen-1-yl)amine]	25%	37 nM	84%	179 nM	50%	–
